Data taken from patent US20040171045A1, “Assay for predicting cell activity” (IsoTis N.V., priority 2001, published 2004).

Test system: human bone marrow stromal cells (HBMSC)
Test: Temporal expression of ALP in HBMSC cultures by flow cytometry, (+) dex versus control medium
Format: cell-based
Settings: 10^−8 M dex, average of day 3 to day 9
Description: The expression of ALP was evaluated by flow cytometry at several culture periods (from day 1 to day 9, three to four measurements were performed for each culture). Briefly, after trypsinisation, cells were washed twice in wash buffer and blocked against non-specific binding (see above). Cells (approx. 0.1-0.3E6/staining) were then resuspended in blocking buffer containing: (a) control mouse anti-human IgG2a (1:5 dilution) and (b) ALP monoclonal antibody (1:10 dilution). After incubation on ice for 45 minutes and washing, antibody reactivity was detected by suspending the cells with blocking buffer containing goat anti-mouse IgGγ-chain-specific-FITC (1:5 dilution). Cells were incubated on ice and in the dark for 30 minutes. After washing, the cells were resuspended in 200 μl of FACS-flow/staining and analyzed using a FACS Calibur apparatus (Becton Dickinson Immunocytometry systems). For each measurement 10,000 events were collected.

Which “Ratio between the fraction of ALP+ cells in the (+) dex and control conditions” value (“Ratio between the fraction of ALP+ cells” below) (Donor 1 (U00079)) does the source give for `C[C@@H]1C[C@H]2[C@@H]3CCC4=CC(=O)C=C[C@]4(C)[C@@]3(F)[C@@H](O)C[C@]2(C)[C@@]1(O)C(=O)CO` [dex, dexamethasone] here?
Its value is 1.53.

And the “Ratio between the fraction of ALP+ cells” value (Donor 2 (U00084))?
The value was 1.53.

What about the “Ratio between the fraction of ALP+ cells” value (Donor 3 (U00169)) of the same molecule?
Its value is 1.40.

What about the “Ratio between the fraction of ALP+ cells” value (Donor 4 (U00182-2)) of the same molecule?
Its value is 2.71.

And the “Ratio between the fraction of ALP+ cells” value (Donor 5 (U00212))?
The value was 2.53.

And the “Ratio between the fraction of ALP+ cells” value (Donor 6 (U00230))?
The value was 1.52.

And the “Ratio between the fraction of ALP+ cells” value (Donor 7 (U00106))?
Its value is 1.25.

And the “Ratio between the fraction of ALP+ cells” value (Donor 8 (U00173))?
The value was 3.72.

And the “Ratio between the fraction of ALP+ cells” value (Donor 9 (U00174))?
The value was 1.56.

And the “Ratio between the fraction of ALP+ cells” value (Donor 11 (U00179))?
The value was 2.40.

And the “Ratio between the fraction of ALP+ cells” value (Donor 12 (U00090))?
The value was 2.56.

What about the “Ratio between the fraction of ALP+ cells” value (Donor 13 (U00180)) of the same molecule?
The value was 1.55.

What about the “Ratio between the fraction of ALP+ cells” value (Donor 14 (U00091)) of the same molecule?
Its value is 1.80.
